Experimental data from article PMC6804044, “Design, Synthesis and Biological Evaluation of Pentacyclic Triterpene Derivatives: Optimization of Anti-ABL Kinase Activity” (Molecules, 2019).
Read-outs that look alike come from different tables or passages of the source.

Experiments:
CML cell line K562 = experiment: MTT cell viability assay, K562; type: cell-based, human; details: for IC50: Homo sapiens, K562, 24 h, MTT, 24 h exposure, read-out: IC50 Values, K562 Cell Line; for SI (selectivity index): ratio of the IC50 between PBMC and K562 cells
Procedure: A549 human lung carcinoma and HeLa human cervical carcinoma cell lines were cultured in Dulbecco’s Modified Eagle Medium (DMEM). […] In experiments, all cancer cell lines and PBMC were cultured in 24-well and 96-well plates (Iwaki brand Asahi Glass, Chiba, Japan) at 2 × 10^4 cells/mL and 1 × 10^6 cells/mL concentrations, respectively for 24 h.
(§1) The cells were then stained with MTT solution and incubated for additional 4 h. At the end of this period, supernatants were removed and 100 μL DMSO was added to each well to solubilize the formazan crystals. The absorbance of the solution was determined on the Infinitive M1000 (Tecan, Mannedorf, Switzerland) plate reader at a wavelength of 550 nm with background subtraction at 630 nm.

[1] = system: peripheral blood mononuclear cells (PBMC); experiment: MTT cell viability assay, PBMC; type: cell-based; details: PBMC, 24 h exposure
Procedure: (§2) A549 human lung carcinoma and HeLa human cervical carcinoma cell lines were cultured in Dulbecco’s Modified Eagle Medium (DMEM). MCF7 human breast cancer and leukemic (K562, HL-60, MT-2 and Jurkat) cells, and PBMC (Precision Bioservices, Frederic, MD, USA) were cultured in RPMI 1640. All media were purchased from FUJIFILM Wako (Osaka, Japan) and supplemented with 10% fetal bovine serum (FBS) (Sigma-Aldrich, St. Louis, MO, USA) and 89 μg/mL streptomycin (Meiji Seika Pharma, Tokyo, Japan) at 37 °C in a humid atmosphere and 5% CO2. In experiments, all cancer cell lines and PBMC were cultured in 24-well and 96-well plates (Iwaki brand Asahi Glass, Chiba, Japan) at 2 × 10^4 cells/mL and 1 × 10^6 cells/mL concentrations, respectively for 24 h.
as §1, with “The cells were exposed to various concentrations (1–100 μM) of the compounds for 24 h at 37 °C. The cells” for “The cells”

ABL1 kinase [2] = molecular target: T1, ABL1 kinase (Homo sapiens, UniProt P00519); details: a value in the previous paper; cited from earlier work
T1 construct: purchased Promega, Madison, WI, USA

HL-60 = experiment: MTT cell viability assay, HL-60; type: cell-based; details: Homo sapiens, 24 h exposure
Procedure: as §2
as §1, with “The cells were exposed to various concentrations (1–100 μM) of the compounds for 24 h at 37 °C. The cells” for “The cells”

MT-2 = experiment: MTT cell viability assay, MT-2; type: cell-based; details: Homo sapiens, MT2, 24 h exposure
Procedure: as §2
as §1, with “The cells were exposed to various concentrations (1–100 μM) of the compounds for 24 h at 37 °C. The cells” for “The cells”

Jurkat = experiment: MTT cell viability assay, Jurkat; type: cell-based; details: Homo sapiens, 24 h exposure
Procedure: as §2
as §1, with “The cells were exposed to various concentrations (1–100 μM) of the compounds for 24 h at 37 °C. The cells” for “The cells”

[3] = system: HeLa human cervical carcinoma; experiment: MTT cell viability assay, HeLa; type: cell-based; details: 24 h exposure
Procedure: as §2
as §1, with “The cells were exposed to various concentrations (1–100 μM) of the compounds for 24 h at 37 °C. The cells” for “The cells”

MCF7 human breast cancer = experiment: MTT cell viability assay, MCF7; type: cell-based; details: 24 h exposure
Procedure: as §2
as §1, with “The cells were exposed to various concentrations (1–100 μM) of the compounds for 24 h at 37 °C. The cells” for “The cells”

[4] = system: A549 human lung carcinoma; experiment: MTT cell viability assay, A549; type: cell-based
Procedure: as §2
as §1, with “The cells were exposed to various concentrations (1–100 μM) of the compounds for 24 h at 37 °C. The cells” for “The cells”

K562 cells = experiment: Cell death detection (Hoechst 33342/annexin V/ethidium homodimer III staining); type: cell-based, human; details: K562, IC50 concentration, 8 h
Procedure: The cells were then briefly washed twice with 1 × binding buffer. A staining solution containing 50 μL of 1 × binding buffer and 5 μL of FITC-Annexin V solution, 5 μL of ethidium homodimer III solution, or 5 μL of Hoechst 33342 solution was added, and incubated for 15 min at room temperature in the dark. Then, the cells were washed with 1 × binding buffer, and analyzed by the all-in-one fluorescence microscope Biorevo Fluorescence BZ-9000 (Keyence, Osaka, Japan). The number of healthy cells (Hoechst 33342), apoptotic cells (Annexin V), late apoptotic or necrotic cells (Annexin V and Ethidium homodimer III) and necrotic cells (Ethidium homodimer III) were counted as previously described.

ABL1 kinase [5] = molecular target: T1, ABL1 kinase; experiment: ABL1 kinase inhibition (ADP-Glo Kinase Assay); type: biochemical; details: ADP-Glo, 1 h incubation, room temperature
Procedure: The ABL1 kinase profiling assay protocol was applied according to the manufacturer`s instructions (Promega, Madison, WI, USA) with the modification proposed in [36]. In this system, the ABL1 kinase and its substrate were diluted with 95 µL 2.5x Kinase Buffer and 15 µL of 100 µM ATP solutions, respectively. Then, the reaction of ABL1 kinase was performed using 2 µL of the compound solution at varying concentrations (0.1–30 µM), 4 µL of kinase working stock, and 4 µL of ATP/substrate working stock in the 384-well plate. After 1 h of incubation at room temperature, the activity of the ABL1 kinase was detected using the ADP-Glo Kinase Assay (Promega, Madison, WI, USA) and the inhibitory kinase activity of compounds in dose-response mode was measured by the Infinitive M1000 luminescence plate reader (Tecan, Groding, Austria).

[6] = system: ERK1/2 and phosphorylated ERK1/2 in K562 cells; experiment: Immunoblot analysis of ERK signaling in K562; type: cell-based, human; details: K562, 10 μM, 6 h
Procedure: After 6 h of treatment at 37 °C, the cells were lysed in PBS-Laemmli sample buffer and then, immunoblot analysis was conducted using phospho-specific-p44/42 MAPK (Erk1/2) (Thr202/Tyr204) (D13.14.4E) XP Rabbit mAb (1:1000) (Cell Signaling Technology, Danvers, MA, USA) or anti-β-actin clone AC-15 (Sigma-Aldrich, St. Louis, MO, USA). For immunoreactivity detection, the chemiluminescence method was performed as previously described. The band intensity was measured using the ImageJ software (NIH, Bethesda, MD, USA).

T1 sequence (P00519 whole entry): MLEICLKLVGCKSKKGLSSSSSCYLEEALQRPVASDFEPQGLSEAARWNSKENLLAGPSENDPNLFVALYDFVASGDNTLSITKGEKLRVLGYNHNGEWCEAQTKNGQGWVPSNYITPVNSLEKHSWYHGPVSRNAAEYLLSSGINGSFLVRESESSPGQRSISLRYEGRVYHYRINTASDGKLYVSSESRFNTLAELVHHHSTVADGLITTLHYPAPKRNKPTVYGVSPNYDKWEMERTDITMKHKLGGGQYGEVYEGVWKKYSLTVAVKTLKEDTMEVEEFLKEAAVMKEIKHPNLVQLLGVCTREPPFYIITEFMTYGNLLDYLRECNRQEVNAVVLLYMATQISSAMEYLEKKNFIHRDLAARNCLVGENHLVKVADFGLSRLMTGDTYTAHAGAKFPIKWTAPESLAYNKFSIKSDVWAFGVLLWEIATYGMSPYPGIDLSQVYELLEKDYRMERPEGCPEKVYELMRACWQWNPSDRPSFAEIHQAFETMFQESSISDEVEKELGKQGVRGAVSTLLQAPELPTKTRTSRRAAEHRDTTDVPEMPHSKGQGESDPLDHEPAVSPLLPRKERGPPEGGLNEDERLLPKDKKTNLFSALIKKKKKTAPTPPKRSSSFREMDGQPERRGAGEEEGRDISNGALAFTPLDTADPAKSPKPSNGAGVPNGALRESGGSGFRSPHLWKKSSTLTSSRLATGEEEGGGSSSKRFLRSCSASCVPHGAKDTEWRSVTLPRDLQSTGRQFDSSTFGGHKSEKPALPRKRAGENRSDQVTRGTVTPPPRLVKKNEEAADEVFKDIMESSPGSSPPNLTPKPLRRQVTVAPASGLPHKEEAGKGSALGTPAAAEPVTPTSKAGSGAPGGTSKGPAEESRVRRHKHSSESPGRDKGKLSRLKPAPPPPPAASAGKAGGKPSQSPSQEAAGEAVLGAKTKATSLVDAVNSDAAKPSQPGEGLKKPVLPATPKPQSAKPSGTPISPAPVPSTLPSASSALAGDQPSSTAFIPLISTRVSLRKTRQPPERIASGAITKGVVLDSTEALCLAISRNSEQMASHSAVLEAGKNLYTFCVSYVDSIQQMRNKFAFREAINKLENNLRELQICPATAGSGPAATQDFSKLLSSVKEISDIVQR

Row | Compound | IC50 (CML cell line K562) [µM] | SI (selectivity index) (CML cell line K562) | IC50 [1] [µM] | IC50 (ABL1 kinase [2]) [µM] | IC50 (HL-60) [µM] | IC50 (MT-2) [µM] | IC50 (Jurkat) [µM] | IC50 [3] [µM] | IC50 (MCF7 human breast cancer) [µM] | activity against A549 cell line at 100 µM ([4]; 100 µM) | IC50 ([4]; Homo sapiens, A549, MTT, 24 h exposure) [µM] | apoptotic effects on CML cell line (K562 cells) [%] | late apoptotic/necrotic effects (K562 cells) [%] | IC50 (ABL1 kinase [5]) [µM] | ERK phosphorylation (phosphorylated ERK1/2) [6] | amount of ERK1/2 [6] | melting point [°C]
1 | CC1(C)CC[C@]2(C(=O)OCc3ccccc3)CC[C@]3(C)C(=CC[C@@H]4[C@@]5(C)CC[C@H](O)[C@@](C)(C=O)[C@@H]5CC[C@]43C)[C@@H]2C1 [Compound 1c, benzyl ester of gypsogenin] | 8.94 ± 1.73 | >11.19 | > 100 | 8.71 ± 1.14 | – | – | – | – | – | – | – | – | – | – | – | – | –
2 | CC1(C)CC[C@]2(C(=O)OCc3cc(C(F)(F)F)cc(C(F)(F)F)c3)CC[C@]3(C)C(=CC[C@@H]4[C@@]5(C)CC[C@H](O)[C@@](C)(C=O)[C@@H]5CC[C@]43C)[C@@H]2C1 [GP2, Gypsogenin 3,5-bis(trifluromethyl)benzyl ester] | 4.78 ± 1.25 | 11.04 | 52.8 ± 3.82 | – | 5.27 ± 0.42 | 36.8 ± 4.21 | 9.14 ± 0.71 | 35.3 ± 2.84 | 51.6 ± 4.75 | inactive | > 100 | 24 | 4.5 | 7.19 ± 0.65 | inhibitory effect of ERK phosphorylation | moderately decreased | 85 to 87
